The values below are quoted from earlier work in patent US20240207338A1, “KETAMINE AND CANNABIS FOR THE TREATMENT OF EMOTIONAL DISORDERS” (Progressive Therapeutics Inc, priority 2021, published 2024).

In the case of `CN[C@]1(c2ccccc2Cl)CCCCC1=O` [S-(+)-ketamine], where the note is “versus R-(−)-ketamine”, the “potency for use in anesthesia relative to R-(−)-ketamine” value was “twice as potent”. For the compound `NC1(c2ccccc2Cl)CCCCC1=O` (centres unmarked) [norketamine], for the setting “versus ketamine”, the “potency for use in anesthesia relative to ketamine” value is listed as “one third the potency”.
